In brackets after ≈: the same amount, converted by molar mass. Entries after “also recorded” stand apart in the source; their conditions may differ. Where two headings read alike, the source gives them in different places. Marks after values point to notes of the source that are not given here.
What was measured:
[1] = test system: MRSA-1; experiment: MIC broth microdilution assay; type: cell-based, Staphylococcus aureus; conditions: Staphylococcus aureus, MRSA
[2] = LDH release assay for HeLa cytotoxicity; type: cell-based; conditions: human, HeLa cells; LDH release, 24 hours; tested at 25, 50 and 100 µM; read-out: HeLa Cytotox. IC50
[3] = test system: MtB H37Ra; experiment: MIC assay for Mycobacterium tuberculosis; type: cell-based; conditions: 168 h, seven days
[4] = test system: MRSA-2; experiment: MIC broth microdilution assay; type: cell-based, Staphylococcus aureus; conditions: Staphylococcus aureus, MRSA
[5] = test system: S. epi 12228; experiment: MIC broth microdilution assay; type: cell-based, Staphylococcus epidermidis; conditions: Staphylococcus epidermidis, 12228
[6] = test system: MRSA BAA-1707; experiment: Calgary Biofilm Device (CBD) MBC/MBEC assay; type: cell-based, Staphylococcus aureus; conditions: for MBC: Staphylococcus aureus
[7] = test system: MRSE 35984; experiment: Calgary Biofilm Device (CBD) MBC/MBEC assay; type: cell-based, Staphylococcus epidermidis; conditions: for MBC: Staphylococcus epidermidis, MRSE, CBD, planktonic killing, read-out: MRSE 35984 MBC; for MRSE Biofilm Eradication MBEC / MRSE Planktonic Killing MBC: supplement page 28, single CBD plate
[8] = test system: MRSA BAA-1707; experiment: Macromolecular synthesis inhibition assay with [3H]-labeled precursors; type: cell-based, Staphylococcus aureus
Protocol: To characterize the antibacterial mechanism of action for HP small molecules, we investigated the effects HP 1 has against MRSA BAA-1707 on global biosynthetic pathways in rapidly-dividing (exponentially-growing) planktonic cells through quantifying the incorporation of various [^3H]-labeled precursors into their corresponding macromolecules. For these experiments, MRSA-1707 cultures were treated with [^3H]-thymidine (DNA biosynthesis), [^3H]-uridine (RNA biosynthesis) and [^3H]-leucine (protein biosynthesis) in the presence of HP 1 and antibiotic controls (4–16 x MIC).
Macromolecular syntheses experiments were carried out in methicillin-resistant Staphylococcus aureus BAA-1707. An overnight culture (100 µL) of S. aureus BAA-1707 was sub-cultured into 10 mL of fresh TSBG media which was allowed to grow to exponential phase (OD600 = 0.2–0.3) before transferring 500 µL to each well in a 24 well-plate. The test compounds and vehicle control (DMSO) were added to achieve the desired concentrations relative to their MIC values against S. aureus BAA-1707. Treated cultures were then incubated at 37 °C for 30 minutes before radioactive precursors for DNA ([^3H] thymidine (0.5 µCi)), RNA ([^3H] uridine (0.5 µCi)) and protein ([^3H] leucine (1 µCi)) were added. […] DMSO served as our negative control. DNA and RNA radiolabeled cultures were then incubated in 37 °C for 15 minutes before being stopped by adding 60 µL of cold 5% trichloroacetic acid (TCA). The protein synthesis experiment was stopped after 40 minutes by adding 60 µL cold TCA. These mixtures were then incubated at 2 °C for at least 30 minutes before the contents of the plates were transferred onto glass microfiber filters (24 mm) and washed 5 times with 1 mL of 5% TCA. The filters are allowed to dry overnight before 3.5 mL of the scintillation fluid was added to the scintillation vials containing the filters and the radiation counts were measured using liquid scintillation LS 6500.
H.) Macromolecular Synthesis Inhibition Assay: […]

[9] = test system: MRSE 35984; experiment: MIC broth microdilution assay; type: cell-based, Staphylococcus epidermidis; conditions: for MIC: Staphylococcus epidermidis, MRSE
[10] = test system: VRE 700221; experiment: Calgary Biofilm Device (CBD) MBC/MBEC assay; type: cell-based, Enterococcus faecium
[11] = Hemolysis assay with red blood cells; conditions: human, pH 7.2
[12] = test system: MRSA BAA-1707; experiment: MIC broth microdilution assay; type: cell-based, Staphylococcus aureus; conditions: for MIC: Staphylococcus aureus
[13] = test system: S. epidermidis; experiment: MIC assays, S. epidermidis strains; type: cell-based; conditions: Staphylococcus epidermidis; range over strains
[14] = test system: four MRSA isolates; experiment: MIC assays, panel of four MRSA isolates; type: cell-based; conditions: Staphylococcus aureus, range over isolates, read-out: MIC against a panel of four MRSA isolates
[15] = test system: VRE 700221; experiment: MIC broth microdilution assay; type: cell-based, Enterococcus faecium; conditions: for MIC: Enterococcus, VRE
[16] = Chemical stability in aqueous formulations; type: physicochemical; conditions: room temperature
[17] = test system: HeLa cells; experiment: LDH release assay for HeLa cytotoxicity; type: cell-based; conditions: 100 µM
[18] = test system: MRSA BAA-44; experiment: MIC broth microdilution assay; type: cell-based; conditions: Staphylococcus aureus
[19] = test system: MRSA BAA-1707; experiment: MIC assay with metal(II) cation co-treatment; type: cell-based, Staphylococcus aureus
[20] = single plate shown as picture, read-out: MIC (µM), MIC Assay Against MRSA-2
[21] = Table 1, read-out: MIC S. epi 12228
[22] = single plate shown as picture, read-out: MIC (µM), MIC Assay Against S. epidermidis 12228
[23] = 24 h, CBD, planktonic killing, 24 hours treatment, read-out: MRSA BAA-1707 MBC
[24] = 24 h, supplement page 27, second CBD plate, read-out: MRSA Planktonic Killing MBC
[25] = Table 1, read-out: MIC MRSE 35984
[26] = Table 3, read-out: MRSE 35984 MIC
[27] = supplement page 28, single CBD plate
[28] = single plate shown as picture, read-out: MIC (µM), MIC Assay Against MRSA-1
[29] = Table 1, three independent experiments, read-out: MIC MRSA BAA-1707
[30] = Table 3, read-out: MRSA BAA-1707 MIC
[31] = single plate shown as picture, read-out: MIC (µM), MIC Assay against MRSA BAA-1707
[32] = Table 1, read-out: MIC VRE 700221
[33] = Table 3, read-out: VRE 700221 MIC
[34] = Table 1, read-out: MIC MRSA BAA-44

Structure (SMILES)	MIC ([1]; Table 1, read-out: MIC MRSA-1) [µM]	IC50 at 24 h [2] [µM]	MIC [3] [nM]	MIC ([4]; Table 1, read-out: MIC MRSA-2) [µM]	MIC [4, 20] [µM]	MIC [5, 21] [µM]	MIC [5, 22] [µM]	MBC [6, 23] [nM]	MBC [6, 24] [nM]	MBC [7] [nM]	MRSE Biofilm Eradication MBEC [7] [µM]	MRSE Planktonic Killing MBC [7] [nM]	MIC [9, 25] [µM]	MIC [9, 26] [µM]	MIC MRSE 35984 ([9]; Table 1)	hemolysis at 1 h, 200 µM [11] [%]	MIC [1, 28] [µM]	MIC [12, 29] [µM]	MIC [12, 30] [µM]	MIC [12, 31] [µM]	other results
Oc1c(Br)cc(Br)c2nc3ccccc3nc12 [HP 1, 2,4-dibromo-1-hydroxyphenazine]	0.78 (≈ 0.276 µg/mL)	~100	25000 (≈ 8.85 µg/mL)	2.35 (≈ 0.832 µg/mL)	3.13 (≈ 1.11 µg/mL)	2.35 (≈ 0.832 µg/mL)	3.13 (≈ 1.11 µg/mL)	50000 (≈ 17.7 µg/mL)	25000 (≈ 8.85 µg/mL)	23500 (≈ 8.32 µg/mL)	250	15600	2.35 (≈ 0.832 µg/mL)	2.35 (≈ 0.832 µg/mL)	2.35^a µM	≤ 1	–	–	–	–	MRSA-1707 Biofilm Eradication MBEC ([6]; Figure 7A, single CBD plate): 50 µM; MBC ([6]; 24 h, supplement page 27, first CBD plate, read-out: MRSA Planktonic Killing MBC): 25000 nM (≈ 8.85 µg/mL); MBC ([6]; Figure 7A, single CBD plate, read-out: MRSA-1707 Planktonic Eradication MBC): 25000 nM (≈ 8.85 µg/mL); RNA biosynthesis inhibition ([3H]-uridine) ([8]; 4 x MIC): inhibits; protein biosynthesis inhibition ([3H]-leucine) ([8]; 4 x MIC): inhibits; DNA biosynthesis inhibition ([3H]-thymidine) ([8]; 8 x MIC): does not inhibit; also recorded: not inhibiting; MBC ([10]; Enterococcus, VRE, CBD, planktonic killing, read-out: VRE 700221 MBC): 18800 nM (≈ 6.66 µg/mL); VRE Biofilm Eradication MBEC [10, 27]: 12.5 µM; VRE Planktonic Killing MBC [10, 27]: 12500 nM
CCc1cccc2nc3c(O)c(Br)cc(Br)c3nc12 [HP 18]	0.15 (≈ 0.0573 µg/mL)	> 100	25000 (≈ 9.55 µg/mL)	0.39 (≈ 0.149 µg/mL)	0.39 (≈ 0.149 µg/mL)	0.3 (≈ 0.115 µg/mL)	0.39 (≈ 0.149 µg/mL)	–	–	–	–	–	0.1 to 0.78 (≈ 0.0382 to 0.298 µg/mL)	≤ 0.1	≤ 0.10^b µM	1.7	0.2 (≈ 0.0764 µg/mL)	0.05 to 0.3 (≈ 0.0191 to 0.115 µg/mL)	≤ 0.1	0.1 (≈ 0.0382 µg/mL)	MIC MRSA BAA-1707 ([12]; Table 1, three independent experiments): ≤ 0.10^b µM; MIC [13]: 100 to 300 nM (≈ 0.0382 to 0.115 µg/mL); MIC [14]: 50 to 590 nM (≈ 0.0191 to 0.225 µg/mL); MIC ([9]; single plate shown as picture, read-out: MIC (µM), MIC Assay Against MRSE 35984): 0.1 µM (≈ 0.0382 µg/mL); MIC [15, 32]: 0.15 µM (≈ 0.0573 µg/mL); MIC [15, 33]: 0.15 µM (≈ 0.0573 µg/mL); MIC ([15]; single plate shown as picture, read-out: MIC (µM), MIC Assay Against VRE 700221): 0.2 µM (≈ 0.0764 µg/mL); MIC VRE 700221 ([15]; Table 1): 0.15^a µM
COCCOCCOCCOCCOC(=O)Oc1c(Br)cc(Br)c2nc3ccccc3nc12 [HP 24]	–	> 100	25000 (≈ 14.7 µg/mL)	2.35 (≈ 1.38 µg/mL)	–	0.78 (≈ 0.459 µg/mL)	–	75000 (≈ 44.1 µg/mL)	100000 (≈ 58.8 µg/mL)	75000 (≈ 44.1 µg/mL)	100	50000	1.56 (≈ 0.918 µg/mL)	1.56 (≈ 0.918 µg/mL)	–	2.4	–	–	–	–	chemically stable in aqueous formulations [16]: > 1 month; HeLa cell cytotoxicity at 100 µM [17]: no HeLa cell cytotoxicity; MIC [15, 32]: 6.25 µM (≈ 3.68 µg/mL); MIC [15, 33]: 6.25 µM (≈ 3.68 µg/mL); MIC ([18]; single plate shown as picture, read-out: MIC (µM), MIC Assay Against MRSA BAA-44): 1.56 µM (≈ 0.918 µg/mL); MIC [18, 34]: 1.56 µM (≈ 0.918 µg/mL)
COCCOCCOCCOCCOC(=O)Oc1c(Br)cc(Br)c2nc3c(C)cccc3nc12 [HP 25]	≤ 0.1	> 100	12500 (≈ 7.53 µg/mL)	≤ 0.1	–	≤ 0.1	–	–	–	–	–	–	0.15 (≈ 0.0903 µg/mL)	0.15 (≈ 0.0903 µg/mL)	–	≤ 1	0.1 (≈ 0.0602 µg/mL)	0.003 (≈ 0.00181 µg/mL)	0.003 (≈ 0.00181 µg/mL)	0.003 (≈ 0.00181 µg/mL)	chemically stable in aqueous formulations [16]: > 1 month; HeLa cell cytotoxicity at 100 µM [17]: no HeLa cell cytotoxicity; MIC ([19]; Staphylococcus aureus, Cu(II) co-treatment plate, lanes without metal, read-out: MIC): 0.1 µM; MIC ([19]; Staphylococcus aureus, Fe(II) co-treatment plate, lanes without metal, read-out: MIC): 0.1 µM; MIC ([19]; Staphylococcus aureus, Mg(II) co-treatment plate, lanes without metal, read-out: MIC): 0.003 µM; MIC ([19]; Staphylococcus aureus, Table 2, MRSA BAA-1707, no metal(II) cation added, read-out: MIC): 0.0047 µM; MIC ([19]; Staphylococcus aureus, Zn(II) extended plate assay, lanes without metal, read-out: MIC): 0.003 µM; MIC ([19]; Staphylococcus aureus, copper(II) at 200 µM co-treatment, read-out: MIC w/Cu2+): > 100 µM; MIC ([19]; Staphylococcus aureus, iron(II) at 200 µM co-treatment, read-out: MIC w/Fe2+): 25 µM; MIC ([19]; Staphylococcus aureus, magnesium(II) at 200 µM co-treatment, read-out: MIC w/Mg2+): 0.0047 µM; MIC ([19]; Staphylococcus aureus, single plate, 200 µM Cu(II), read-out: MIC (µM) + Cu(II)): > 100 µM; MIC ([19]; Staphylococcus aureus, single plate, 200 µM Fe(II), read-out: MIC (µM) + Fe(II)): 25 µM; MIC ([19]; Staphylococcus aureus, single plate, 200 µM Mg(II), read-out: MIC (µM) + Mg(II)): 0.003 µM; MIC ([19]; Staphylococcus aureus, zinc(II) at 200 µM co-treatment, read-out: MIC w/Zn2+): 7e-05 µM; MIC ([19]; extended plate assay, 200 µM Zn(II), read-out: MIC (µM) + Zn(II)): 0.00005 µM; MIC [18, 34]: 0.013 µM (≈ 0.00783 µg/mL)
